Measured values reported in ChEMBL document CHEMBL6087467, “Probing the Histamine H1 Receptor Binding Site to Explore Ligand Binding Kinetics” (J Med Chem, 2025).

How the values were obtained:
Histamine H1 receptor [1] = target: T1, Histamine H1 receptor (Homo sapiens, UniProt P35367); format: cell-based; settings: hek293t
Histamine H1 receptor [2] = target: T1, Histamine H1 receptor; settings: HEK293T, time 4.0 hrs
Histamine H1 receptor [3] = target: T1, Histamine H1 receptor; settings: HEK293T, time 4.0 hrs; remark: listed apart in the source
Histamine H1 receptor [4] = target: T1, Histamine H1 receptor; assay: biochemical; format: cell-based, HEK293T
Description: Displacement of [3H]-mepyramine from human histamine H1 receptor expressed in HEK293T cells assessed as inhibition constant incubated for 4 hrs by competitive binding assay

Histamine H1 receptor [5] = target: T1, Histamine H1 receptor; assay: biochemical; format: cell-based, HEK293T; remark: listed apart in the source
Description: Displacement of [3H]-mepyramine from human histamine H1 receptor expressed in HEK293T cells assessed as dissociation constant incubated for 4 hrs by competitive binding assay

T1 sequence (P35367 whole entry): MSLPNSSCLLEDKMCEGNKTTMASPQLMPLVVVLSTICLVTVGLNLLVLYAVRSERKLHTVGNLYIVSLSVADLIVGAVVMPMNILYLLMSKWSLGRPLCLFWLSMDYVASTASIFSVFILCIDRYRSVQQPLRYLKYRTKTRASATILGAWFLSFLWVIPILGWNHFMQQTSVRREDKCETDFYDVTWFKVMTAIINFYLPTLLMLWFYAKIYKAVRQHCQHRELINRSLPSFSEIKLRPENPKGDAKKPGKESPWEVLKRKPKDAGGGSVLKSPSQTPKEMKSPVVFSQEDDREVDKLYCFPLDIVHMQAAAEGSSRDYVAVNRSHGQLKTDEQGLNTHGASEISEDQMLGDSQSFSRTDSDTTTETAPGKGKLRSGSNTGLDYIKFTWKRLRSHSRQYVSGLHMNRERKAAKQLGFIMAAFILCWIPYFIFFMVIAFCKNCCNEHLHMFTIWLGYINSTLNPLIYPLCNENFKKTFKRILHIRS

| SMILES | Dissociation rate constant (koff) (Histamine H1 receptor [1]) | Ka (Histamine H1 receptor [2]) | Retention time (Histamine H1 receptor [3]) | Ki (Histamine H1 receptor [4]) | Kd (Histamine H1 receptor [5]) |
| --- | --- | --- | --- | --- | --- |
| O=C(O)CCCCCN1CCC(Oc2ccccc2Cc2ccccc2)CC1 | 0.001 s⁻¹ | 4 10^6/M/min | 17 min |  |  |
| COc1ccc(Cc2ccccc2)c(OC2CCN(C)CC2)c1 | 0.0083 s⁻¹ | 60 10^6/M/min | 2 min |  |  |
| CN1CCC(Oc2c(Cc3ccccc3)cccc2C(=O)O)CC1 | 0.004 s⁻¹ | 0.5 10^6/M/min | 4.2 min |  |  |
| CN1CCC(Oc2c(CO)cccc2Cc2ccccc2)CC1 | 0.0122 s⁻¹ | 27 10^6/M/min | 1.4 min |  |  |
| O=C(O)CCCCN1CCC(Oc2ccccc2Cc2ccccc2)CC1 | 0.00075 s⁻¹ | 3.2 10^6/M/min | 23 min |  |  |
| O=C(O)CCN1CCC(Oc2ccccc2Cc2ccccc2)CC1 | 0.00183 s⁻¹ | 2.9 10^6/M/min | 9 min |  |  |
| O=C(O)COCCN1CCN([C@H](c2ccccc2)c2ccc(Cl)cc2)CC1 |  | 1.4 10^6/M/min |  |  |  |
| O=C(O)CCCCCCN1CCC(Oc2ccccc2Cc2ccccc2)CC1 | 0.00127 s⁻¹ | 2.5 10^6/M/min | 13 min |  |  |
| O=C(O)CCCN1CCC(Oc2ccccc2Cc2ccccc2)CC1 | 0.0017 s⁻¹ | 2.9 10^6/M/min | 10 min |  |  |
| Cc1ccc(/C(=C\CN2CCCC2)c2ccccn2)cc1 [TRIPROLIDINE] |  | 36 10^6/M/min |  |  |  |
| CN1CCC(Oc2cc(CC(=O)O)ccc2Cc2ccccc2)CC1 | 0.00283 s⁻¹ | 1.3 10^6/M/min | 6 min |  |  |
| CC(=O)Cc1cccc(Cc2ccccc2)c1OC1CCN(C)CC1 | 0.00138 s⁻¹ | 2.08 10^6/M/min | 12.1 min | 0.0398 µM | 0.0398 µM |
| c1ccc(Cc2ccccc2OC2CCN(CCCCc3nnn[nH]3)CC2)cc1 | 0.00035 s⁻¹ | 3.7 10^6/M/min | 48 min |  |  |
| CN1CCC(Oc2c(/C=C/C(=O)O)cccc2Cc2ccccc2)CC1 | 0.000917 s⁻¹ | 1.6 10^6/M/min | 3 min |  |  |
| CN1CCC(Oc2ccccc2Cc2ccccc2)CC1 |  | 160 10^6/M/min | 2 min |  |  |
| CN(C)CC/C=C1/c2ccccc2COc2ccc(CC(=O)O)cc21 |  | 1.9 10^6/M/min | 190 min |  |  |
| O=C(O)CCCCCCCN1CCC(Oc2ccccc2Cc2ccccc2)CC1 | 0.00115 s⁻¹ | 2.37 10^6/M/min | 15 min |  |  |
| CN1CCC(Oc2cc(CO)ccc2Cc2ccccc2)CC1 | 0.00417 s⁻¹ | 98 10^6/M/min | 4 min |  |  |
| CN1CCC(Oc2cc(C(=O)O)ccc2Cc2ccccc2)CC1 | 0.017 s⁻¹ | 0.06 10^6/M/min | 1.2 min |  |  |
| CN1CCC(Oc2cc(/C=C/C(=O)O)ccc2Cc2ccccc2)CC1 | 0.000917 s⁻¹ | 0.62 10^6/M/min | 18 min |  |  |
